In US20140072584A1, “NOVEL PHARMACEUTICAL USE OF BENZOIC ACID DERIVATIVES” (priority 2010, published 2014):

Experiments:
[1] = system: LEW-1W donor transplanted rat hearts; test: Heart transplantation model, LEW-1W rats as donor, LEW-1A as recipient, oral administration; format: in vivo; conditions: oral 500 mg/kg/day, four weeks; n=24
Description: a) Heart Transplantation Animal Model with LEW-1W Rats as Donor, LEW-1a as Recipient:
LEW-1W rats were used as donors; donors hearts after being isolated were preserved in saline at 0-4° C. […] The donor's aorta and the recipient's abdominal aorta were sutured up with 8-0 Prolene vascular threads, and the donor's pulmonary artery and the recipient's vena cava were sutured up with 8-0 Prolene vascular threads. When blood vessels were opened, the rat's heart would immediately resume beating, (please see Guillonneau C, Hill M, Hubert F X, Chiffoleau E, Hervé C, Xian-Liang Li, et al. CD40Ig treatment results in allograft acceptence mediated by CD8+CD45RClow T cells, IFN-γ and indoleamine 2,3 dioxygenase. Journal Clinical Investagtion. 2007; 117 (4): 1096-1106).
Observation parameters: after the abdomen was closed, palpation was used to check the beating of a transplanted rat heart, to determine graft survival period. That transplanted heart stops beating within 3 weeks was considered as having acute rejection, that transplanted heart stops beating after one month was considered as having chronic rejection, and that transplanted heart beats normally for more than three months was considered as having immune tolerance. […]

[2] = system: BN donor transplanted rat hearts; test: Heart transplantation model, BN rats as donor, LEW-1A rats as recipient, oral administration; format: in vivo; conditions: oral 500 mg/kg/day, four weeks; n=6
Description: b) Heart Transplantation Animal Model with BN Rats as Donor and LEW-1A Rats as Recipient:
BN rats were used as donors; donors hearts after being isolated were preserved in saline at 0-4° C. […] The donor's aorta and the recipient's abdominal aorta were sutured up with 8-0 Prolene vascular threads, and the donor's pulmonary artery and the recipient's vena cava were sutured up with 8-OProlene vascular threads. When blood vessels were opened, the rat's heart would immediately resume beating.
Observation parameters: after the abdomen was closed, palpation was used to check the beating of a transplanted rat heart, to determine graft survival period. That transplanted heart stops beating within 3 weeks was considered as having acute rejection, that transplanted heart stops beating after one month was considered as having chronic rejection, and that transplanted heart beats normally for more than three months was considered as having immune tolerance.
Experiment Methods: 12 rats from the experiment model established by method b) BN rats as donors and LEW-1A rats as recipients were used and divided into study and control groups, 6 rats for each group. […]

[3] = system: CD4+ effector cells; test: Mixed lymphocyte culture, CFSE proliferation of effector cells by flow cytometry; format: cell-based, rat; conditions: 4 days culture
Excerpt: Experiment method: From bodies of untreated rats (LEW-1A rats in Example 1), splenocytes were extracted according to the splenocytes extraction method described in Section 2.2.1. Splenocytes were fluorescence-labeled for TCR, CD4 and CD25, and by flow cytometry cell sorter TCR+CD4+CD25−cells were collected as CD4+ effector cells. Splenocytes after the removal of T-lymphocytes (TCR+cells), B cell lymphocytes (CD45R+cells) and NK cells (3.2.3+cells) by immuno-magnetic beads, were marked using fluorescent antibodies for TCR, CD11c and CD123 (antibody concentration was 5-10 μg/ml). By flow cytometry cell sorter, TCR-CD11c−CD123+cells were collected as pDC, and TCR-CD11c+CD123−cells were collected as mDC.
Well separated CD4+ effector cells and pDC or mDC and defined regulatory cells, respectively in a proportion of 4/4/1 were added into a 96-well culture plate, 200 ul culture medium was added and they were cultured in a 5% CO2 incubator at 37 degrees Celsius for 4 days. During the cultivation, cinnamoyl anthranilic acid (1.2-150 μmol) or control DMSO solvent was added. Cells were stain labeled after the four days, and the proliferation of effector cells was analyzed by a flow cytometer.
CD4+ effector cells before the mixed culture were marked by living organism dye CFSE (10*6 cells/ml in 5 μM CFSE). Labeled CD4+ effector cells were added to a mixed lymphocyte cultivation test, were marked again using fluorescent antibodies (TCR, CD4) after four days, and then were analyzed by a flow cytometer (TCR+CD4+gate) for effector cell proliferation.
Cinnamoyl anthranilic acid was added in different concentrations (150 μM, 75 μM, 37.5 μM, 18.7 μM, 9.35 μM, 4.7 μM, 2.35 μM, 1.2 μM). Cell stain labeling was conducted after 4 days of the culture, and the proliferation of effector cells was analyzed by a flow cytometer.

[4] = after oral administration, cited from earlier work

## COc1ccc(/C=C/C(=O)Nc2ccccc2C(=O)O)cc1OC [cinnamoyl anthranilic acid]
[1]
  recipients overcame acute rejection: 92%
  recipients with long-term survival with a state of induced immune tolerance: 42%
[2]
  recipients overcame acute rejection: 100%
  recipients with long-term survival with a state of induced immune tolerance: 50%
[3]; 37.5 μM to 9.35 μM
  effect on proliferation of CD4 effector T cells (CFSE): dose-dependent inhibitory effect
[3]; 150 μM and 75 μM
  effect on activated CD4 effector cells at high concentrations: directly kill activated CD4 effector cells
[3]; below 4.7 μM
  effect on proliferation of CD4 effector cells at low concentration: did not show the inhibitory effect
[4]; 48 h
  blood concentration at 48 h: difficult to be detected
[4]
  plasma half-life: 5 to 8.6 h
  time to peak plasma concentration: 2 to 3 h
  tissue distribution: bronchial and lung have the highest concentration
